pIC50: −log10 of the molar value.
Legend:
Human PKMYT1 = biological target: T1, Human PKMYT1 (Homo sapiens, UniProt Q99640); assay: PKMYT1 biochemical ADP-Glo enzymatic assay; settings: ADP-Glo; 15 nM PKMYT1 kinase domain, 500 µM ATP, 60 minutes at 26° C.; banded
T1 construct: Human PKMYT1 75-362 was cloned as a TEV cleavable 6xHis fusion; 6xHis (TEV cleavable) (cleaved yes); made in house; host or cells: bacterial cells
T1 sequence (Q99640 75-362): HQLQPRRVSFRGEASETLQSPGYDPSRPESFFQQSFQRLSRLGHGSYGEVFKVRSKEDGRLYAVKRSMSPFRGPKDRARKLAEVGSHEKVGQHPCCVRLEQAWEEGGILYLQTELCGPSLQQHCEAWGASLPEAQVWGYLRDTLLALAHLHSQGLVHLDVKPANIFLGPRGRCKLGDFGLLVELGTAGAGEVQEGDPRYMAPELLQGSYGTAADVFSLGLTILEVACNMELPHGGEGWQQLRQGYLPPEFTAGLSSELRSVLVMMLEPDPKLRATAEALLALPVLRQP
Outline: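 Measures inhibition of PKMYT1 autonomous ATP hydrolysis: bacterially expressed human enzyme (75-362, tag cleaved) at 15 nM with 500 µM ATP for 60 min at 26 °C, then ADP-Glo Max detection. IC50s accepted only when replicates agreed within 3-fold and curve r2 exceeded 0.9.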

WEE1 = biological target: T2, WEE1 (Homo sapiens, UniProt P30291); assay: Selectivity versus WEE1 assay (ADP-Glo enzymatic assay); format: biochemical; settings: banded; for pIC50: ADP-Glo, 15 nM WEE1, 60 minutes at 26° C.; for PKMYT1 vs. WEE1 selectivity: fold difference in selectivity for PKMYT1 over WEE1, ">N" = at least in this band but could be higher
T2 construct: purchased Thermo Fisher PR7373A
Outline: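 Same format as the PKMYT1 assay: WEE1 at 15 nM final with 30 µM ATP, 60 min at 26° C, ADP-Glo luminescence detection, IC50 by dose-response fitting.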

T2 sequence (P30291 whole entry): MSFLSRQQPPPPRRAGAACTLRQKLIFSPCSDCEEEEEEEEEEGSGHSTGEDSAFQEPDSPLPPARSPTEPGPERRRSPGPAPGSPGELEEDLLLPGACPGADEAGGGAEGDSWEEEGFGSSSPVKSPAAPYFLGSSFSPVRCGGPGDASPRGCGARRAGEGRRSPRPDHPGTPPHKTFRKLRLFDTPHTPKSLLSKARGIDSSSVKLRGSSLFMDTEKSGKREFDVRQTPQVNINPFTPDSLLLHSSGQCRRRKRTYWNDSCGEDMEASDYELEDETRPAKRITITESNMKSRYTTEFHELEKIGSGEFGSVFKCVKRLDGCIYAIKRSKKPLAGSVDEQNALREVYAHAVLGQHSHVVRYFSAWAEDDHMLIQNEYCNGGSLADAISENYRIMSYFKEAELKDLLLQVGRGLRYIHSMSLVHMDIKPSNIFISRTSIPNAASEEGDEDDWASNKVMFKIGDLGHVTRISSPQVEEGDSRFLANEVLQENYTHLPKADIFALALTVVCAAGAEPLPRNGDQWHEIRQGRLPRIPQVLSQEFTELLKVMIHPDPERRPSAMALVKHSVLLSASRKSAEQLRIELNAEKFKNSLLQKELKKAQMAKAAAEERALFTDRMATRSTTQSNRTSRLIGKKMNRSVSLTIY

pIC50 (Human PKMYT1) | pIC50 (WEE1) | PKMYT1 vs. WEE1 selectivity (WEE1) | SMILES
6.00 to 7.30 | 4.96 to 6.00 | W (10-<100 fold) | Cc1ccc(O)c(C)c1NC(=O)c1cnc(Nc2ccn([C@@H]3CCN(C)C3)n2)s1 [BAA-116, N-(3-Hydroxy-2,6-dimethyl-phenyl)-2-[[1-[(3R)-1-methylpyrrolidin-3-yl]pyrazol-3-yl]amino]thiazole-5-carboxamide]
> 7.30 | < 4.96 | Y (1000-5000 fold) | Cc1ccc(O)c(C)c1NC(=O)c1cnc(Nc2ccn(CC(=O)N(C)C)n2)s1 [BAA-117, 2-[[1-[2-(Dimethylamino)-2-oxo-ethyl]pyrazol-3-yl]amino]-N-(3-hydroxy-2,6-dimethyl-phenyl)thiazole-5-carboxamide]
> 7.30 | < 4.96 | X (100-<1000 fold) | Cc1ccc(O)c(C)c1NC(=O)c1cnc(Nc2cc(C(=O)O)n(C)n2)s1 [BAA-118, 5-[[5-[(3-hydroxy-2,6-dimethyl-phenyl)carbamoyl]thiazol-2-yl]amino]-2-methyl-pyrazole-3-carboxylic acid]
6.00 to 7.30 | < 4.96 | X (100-<1000 fold) | CNC(=O)c1cc(Nc2ncc(C(=O)Nc3c(C)ccc(O)c3C)s2)nn1C [BAA-119, N-(3-hydroxy-2,6-dimethyl-phenyl)-2-[[1-methyl-5-(methylcarbamoyl)pyrazol-3-yl]amino]thiazole-5-carboxamide]
6.00 to 7.30 | 4.96 to 6.00 | X (100-<1000 fold) | Cc1ccc(O)c(C)c1NC(=O)c1cnc(Nc2cc(C(=O)N(C)C)n(C)n2)s1 [BAA-120, 2-[[5-(dimethylcarbamoyl)-1-methyl-pyrazol-3-yl]amino]-N-(3-hydroxy-2,6-dimethyl-phenyl)thiazole-5-carboxamide]
6.00 to 7.30 | < 4.96 | X (100-<1000 fold) | Cc1ccc(O)c(C)c1NC(=O)c1cnc(Nc2cc(C(=O)O)nn2C)s1 [BAA-121, 5-[[5-[(3-hydroxy-2,6-dimethyl-phenyl)carbamoyl]thiazol-2-yl]amino]-1-methyl-pyrazole-3-carboxylic acid]
6.00 to 7.30 | 4.96 to 6.00 | X (100-<1000 fold) | Cc1ccc(O)c(C)c1NC(=O)c1cnc(Nc2cc(C)n(C)n2)s1 [BAA-122, 2-[(1,5-dimethylpyrazol-3-yl)amino]-N-(3-hydroxy-2,6-dimethyl-phenyl)thiazole-5-carboxamide]
> 7.30 | < 4.96 | X (100-<1000 fold) | Cc1ccc(O)c(C)c1NC(=O)c1cnc(Nc2cc(C)n(CC(=O)O)n2)s1 [BAA-124, 2-[3-[[5-[(3-hydroxy-2,6-dimethyl-phenyl)carbamoyl]thiazol-2-yl]amino]-5-methyl-pyrazol-1-yl]acetic acid]
> 7.30 | < 4.96 | Y (1000-5000 fold) | Cc1cn(CC(=O)O)nc1Nc1ncc(C(=O)Nc2c(C)ccc(O)c2C)s1 [BAA-125, 2-[3-[[5-[(3-hydroxy-2,6-dimethyl-phenyl)carbamoyl]thiazol-2-yl]amino]-4-methyl-pyrazol-1-yl]acetic acid]
> 7.30 | < 4.96 | Y (1000-5000 fold) | Cc1cc(Nc2ncc(C(=O)Nc3c(C)ccc(O)c3C)s2)n(C)n1 [BAA-127, 2-[(2,5-dimethylpyrazol-3-yl)amino]-N-(3-hydroxy-2,6-dimethyl-phenyl)thiazole-5-carboxamide]
> 7.30 | 4.96 to 6.00 | X (100-<1000 fold) | Cc1ccc(O)c(C)c1NC(=O)c1cnc(Nc2cc(C(N)=O)n(C)n2)s1 [BAA-130, 2-[(5-Carbamoyl-1-methyl-pyrazol-3-yl)amino]-N-(3-hydroxy-2,6-dimethyl-phenyl)thiazole-5-carboxamide]
> 7.30 | < 4.96 | Y (1000-5000 fold) | Cc1ccc(O)c(C)c1NC(=O)c1cnc(Nc2cc(C(N)=O)nn2C)s1 [BAA-131, 2-[(5-Carbamoyl-2-methyl-pyrazol-3-yl)amino]-N-(3-hydroxy-2,6-dimethyl-phenyl)thiazole-5-carboxamide]
> 7.30 | < 4.96 | Y (1000-5000 fold) | Cc1ccc(O)c(C)c1NC(=O)c1cnc(Nc2ccn(CC(=O)N3CCC(O)CC3)n2)s1 [BAA-132, N-(3-Hydroxy-2,6-dimethyl-phenyl)-2-[[1-[2-(4-hydroxy-1-piperidyl)-2-oxo-ethyl]pyrazol-3-yl]amino]thiazole-5-carboxamide]
> 7.30 | 4.96 to 6.00 | X (100-<1000 fold) | Cc1ccc(O)c(C)c1NC(=O)c1cnc(Nc2ccn(CC(N)=O)n2)s1 [BAA-133, 2-[[1-(2-amino-2-oxo-ethyl)pyrazol-3-yl]amino]-N-(3-hydroxy-2,6-dimethyl-phenyl) thiazole-5-carboxamide]
> 7.30 | < 4.96 | Y (1000-5000 fold) | COCCOCCNC(=O)Cn1ccc(Nc2ncc(C(=O)Nc3c(C)ccc(O)c3C)s2)n1 [BAA-134, N-(3-hydroxy-2,6-dimethyl-phenyl)-2-[[1-[2-[2-(2-methoxyethoxy)ethylamino]-2-oxo-ethyl]pyrazol-3-yl]amino]thiazole-5-carboxamide]
> 7.30 | 4.96 to 6.00 | X (100-<1000 fold) | CCCCCCCNC(=O)Cn1ccc(Nc2ncc(C(=O)Nc3c(C)ccc(O)c3C)s2)n1 [BAA-135]
> 7.30 | < 4.96 | Y (1000-5000 fold) | Cc1ccc(O)c(C)c1NC(=O)c1cnc(Nc2ccn(CC(=O)N3CCC(F)(F)CC3)n2)s1 [BAA-136, 2-[[1-[2-(4,4-difluoro-1-piperidyl)-2-oxo-ethyl]pyrazol-3-yl]amino]-N-(3-hydroxy-2,6-dimethyl-phenyl)thiazole-5-carboxamide]
6.00 to 7.30 | < 4.96 | X (100-<1000 fold) | Cc1ccc(O)c(C)c1NC(=O)c1cnc(Nc2ccn(CC(=O)NC(C)(C)CO)n2)s1 [BAA-138, 2-[1-[2-[(2-hydroxy-1,1-dimethyl-ethyl)amino]-2-oxo-ethyl]pyrazol-3-ylJamino]-N-(3-hydroxy-2,6-dimethyl-phenyl)thiazole-5-carboxamide]
> 7.30 | < 4.96 | Y (1000-5000 fold) | Cc1ccc(O)c(C)c1NC(=O)c1cnc(Nc2ccn(CC(=O)N3CC[C@@H](O)C3)n2)s1 [BAA-139, N-(3-hydroxy-2,6-dimethyl-phenyl)-2-[[1-[2-[(3R)-3-hydroxypyrrolidin-1-yl]-2-oxo-ethyl]pyrazol-3-yl]amino]thiazole-5-carboxamide]
> 7.30 | < 4.96 | Y (1000-5000 fold) | Cc1ccc(O)c(C)c1NC(=O)c1cnc(Nc2ccn(CC(=O)N3CCN(C(=O)OC(C)(C)C)CC3)n2)s1 [BAA-140, tert-butyl 4-[2-[3-[5-[(3-hydroxy-2,6-dimethyl-phenyl)carbamoyl]thiazol-2-ylamino]pyrazol-1-yl]acetyl]piperazine-1-carboxylate]
> 7.30 | < 4.96 | X (100-<1000 fold) | CNC(=O)Cn1ccc(Nc2ncc(C(=O)Nc3c(C)ccc(O)c3C)s2)n1 [BAA-141, N-(3-hydroxy-2,6-dimethyl-phenyl)-2-[[1-[2-(methylamino)-2-oxo-ethyl]pyrazol-3-yl]amino]thiazole-5-carboxamide]
